Molecular target: T1, bile salt hydrolase from Arthrobacter citreus EINP1 (BSHAc) (Arthrobacter citreus, UniProt A0ABZ2ZT44)
T1 construct: gene bsh; C-terminally hexahistidine-tagged recombinant BSHAc; NCBI WP_342023006.1
Assay: […] Å crystal structure of the covalent complex; time-dependent inactivation kinetics of the purified enzyme (kinact/KI […] ^-1s^-1)
Type: biochemical

T1 sequence (A0ABZ2ZT44 entry or part of it): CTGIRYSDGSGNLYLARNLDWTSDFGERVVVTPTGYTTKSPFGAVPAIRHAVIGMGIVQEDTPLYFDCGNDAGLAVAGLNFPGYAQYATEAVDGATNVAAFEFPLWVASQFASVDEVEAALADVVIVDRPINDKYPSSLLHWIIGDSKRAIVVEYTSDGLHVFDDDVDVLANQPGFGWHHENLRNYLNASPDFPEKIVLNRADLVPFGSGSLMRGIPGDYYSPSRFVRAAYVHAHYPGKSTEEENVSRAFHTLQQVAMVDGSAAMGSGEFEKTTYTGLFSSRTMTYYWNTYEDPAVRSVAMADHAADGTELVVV

Compound: C[C@H](CCC(=O)CF)[C@H]1CC[C@H]2[C@@H]3CC[C@@H]4C[C@H](OS(=O)(=O)O)CC[C@]4(C)[C@H]3CC[C@]12C [AAA-10]
- KI (inactivation): 23 µM

Reference: paper PMC11736000, “Structural and functional analysis of a bile salt hydrolase from the bison microbiome” (The Journal of Biological Chemistry, 2024)
